Results on 22 compounds are retold here after patent US9315475B2 (MERCK SHARP & DOHME CORP., priority 2011, dated 2016).

In the assay the test system is HIV-1 (H9IIIB strain). The assay can be described thus: Antiviral acute infection assay in cell culture (Spread). Type of assay: cell-based. The settings on record: Human immunodeficiency virus 1, T-lymphoid, HIV-1 H9IIIB infection of MT-4 human T-lymphoid cells in 10% FBS; mean of at least two independent experiments. The source says: Antiviral Assays in Cell Culture (“Spread”)
Acute Infection Assay (“Spread”) data were generated using HIV-1 (H9IIIB strain) infection of MT-4 human T-lymphoid cells in 10% FBS, and according to the methods disclosed by J. P. Vacca et al, “L-735,524: An orally bioavailable human immunodeficiency virus type 1 protease inhibitor,” Proc. Natl. Acad. Sci. USA, Vol. 91, pp. 4096-4100 (April 1994).
`CC(NC(=O)OC[C@@H]1CO[C@H](CCc2c(F)cncc2NC(=O)CC(c2ccc(F)cc2)c2ccc(F)cc2)CN1)C1CCCO1` (stereo partly drawn) [Example 171, {(3S,6R)-6-[2-(3-{[3,3-bis(4-fluoro-phenyl)propanoyl]amino}-5-fluoropyridin-4-yl)ethyl]morpholin-3-yl}methyl [1-(tetrahydrofuran-2-yl)ethyl]carbamate] had an EC50 of 68 nM.
The figure for `N[C@H](C(=O)Nc1cncc(F)c1CC[C@@H]1CN[C@H](COC(=O)NCC(F)(F)F)CO1)[C@@H](c1ccc(F)cc1)C1CCOCC1` [Example 127, (βR)-4-Fluoro-N-(5-fluoro-4-{2-[(2R,5S)-5-({[(2,2,2-trifluoroethyl)carbamoyl]oxy}methyl)morpholin-2-yl]ethyl}pyridin-3-yl)-β-(tetrahydro-2H-pyran-4-yl)-L-phenylalaninamide] is 71 nM; for `COC(=O)N[C@H](C(=O)Nc1cncc(F)c1CC[C@@H]1CN[C@H](COC(=O)NCC(F)(F)F)CO1)[C@@H](c1ccc(Cl)cc1)c1ccc2c(c1)OCO2` [Example 104, (βS)-β-1,3-Benzodioxol-5-yl-4-chloro-N-(5-fluoro-4-{2-[(2R,5S)-5-({[(2,2,2-trifluoroethyl)carbamoyl]oxy}methyl)morpholin-2-yl]ethyl}pyridin-3-yl)-Nα-(methoxycarbonyl)-L-phenylalaninamide] it is 26 nM.
`COC(=O)N[C@H](C(=O)Nc1cccc(F)c1CC[C@@H]1CN[C@H](COC(=O)NCC(F)(F)F)CO1)[C@H](c1ccccc1)c1ccc(OC)c(Cl)c1` [Example 109, (βR)-3-Chloro-N-(3-fluoro-2-{2-[(2R,5S)-5-({[(2,2,2-trifluoroethyl)carbamoyl]oxy}methyl)morpholin-2-yl]ethyl}phenyl)-Nα-(methoxycarbonyl)-O-methyl-β-phenyl-L-tyrosinamide] displayed an EC50 of 340 nM. Compared with the last compound, the EC50 is about 13-fold higher.
As to `O=C(CC(c1ccc(F)cc1)c1ccc(F)cc1)Nc1cncc(F)c1CC[C@@H]1CN[C@H](COC(=O)NC2CCOC2)CO1` (stereo partly drawn) [Example 173, {(3S,6R)-6-[2-(3-{[3,3-bis(4-fluoro-phenyl)propanoyl]amino}-5-fluoropyridin-4-yl)ethyl]morpholin-3-yl}methyl tetrahydrofuran-3-ylcarbamate], a half-maximal response (EC50) required 37 nM. This EC50 lies about 9.2-fold lower than the previous one.
To `O=C(C[C@@H](c1ccc(F)cc1)c1cncc(C(F)(F)F)c1)Nc1cccc(F)c1CC[C@@H]1CN[C@H](COC(=O)NCC(F)(F)F)CO1` [Example 139, [(3S,6R)-6-{2-[2-Fluoro-6-({(3S)-3-(4-fluorophenyl)-3-[5-(trifluoromethyl)pyridin-3-yl]propanoyl}amino)phenyl]ethyl}morpholin-3-yl]methyl (2,2,2-trifluoroethyl)carbamate] belongs 108 nM; to `COC(=O)N[C@H](C(=O)Nc1cccc(F)c1CC[C@@H]1CN[C@H](COC(=O)NCC(F)(F)F)CO1)[C@@H](c1ccc(Cl)cc1)c1cncc(F)c1` [Example 137, (βS)-4-Chloro-β-(5-fluoropyridin-3-yl)-N-(3-fluoro-2-{2-[(2R,5S)-5-({[(2,2,2-trifluoroethyl)carbamoyl]oxy}methyl)morpholin-2-yl]ethyl}phenyl)-Nα-(methoxycarbonyl)-L-phenylalaninamide], 9.8 nM; to `O=C(C[C@@H](c1ccc(F)cc1)c1cccc(F)c1F)Nc1cccc(F)c1CC[C@@H]1CN[C@H](COC(=O)NCC(F)(F)F)CO1` [Example 153, {(3S,6R)-6-[2-(2-{[(3S)-3-(2,3-difluorophenyl)-3-(4-fluorophenyl)propanoyl]amino}-6-fluoro-phenyl)ethyl]morpholin-3-yl}methyl (2,2,2-trifluoroethyl)carbamate], 130 nM.
The figure for `O=C(C[C@@H](c1ccc(F)cc1)c1ccc(C(F)(F)F)nc1)Nc1cncc(F)c1CC[C@@H]1CN[C@H](COC(=O)NCC(F)(F)F)CO1` [Example 133, [(3S,6R)-6-{2-[3-Fluoro-5-({(3S)-3-(4-fluorophenyl)-3-[6-(trifluoromethyl)pyridin-3-yl]propanoyl}amino)pyridin-4-yl]ethyl}morpholin-3-yl]methyl (2,2,2-trifluoroethyl)carbamate] is 23 nM; for `O=C(C[C@@H](c1ccc(F)cc1)c1cncc(C(F)(F)F)c1)Nc1cncc(F)c1CC[C@@H]1CN[C@H](COC(=O)NCC(F)(F)F)CO1` [Example 184, [(3S,6R)-6-{2-[3-fluoro-5-({(3S)-3-(4-fluorophenyl)-3-[5-(trifluoromethyl)pyridin-3-yl]propanoyl}amino)pyridin-4-yl]ethyl}morpholin-3-yl]methyl (2,2,2-trifluoroethyl)carbamate] it is 15 nM.
The figure for `NC(=O)OC[C@@H]1CO[C@H](CCc2c(F)cccc2NC(=O)[C@@H](N)[C@@H](c2ccc(F)cc2)c2cccc(F)c2)CN1` [Example 120, (βS)—N-[2-(2-{(2R,5S)-5-[(Carbamoyloxy)methyl]morpholin-2-yl}ethyl)-3-fluorophenyl]-4-fluoro-β-(3-fluorophenyl)-L-phenylalaninamide] is 20 nM; for `N[C@H](C(=O)Nc1cncc(F)c1CC[C@@H]1CN[C@H](COC(=O)NCC(F)(F)F)CO1)[C@H](c1ccc(F)cc1)c1ccc(-c2cccnc2)cc1` [Example 224, (βS)-β-(4-fluorophenyl)-N-(5-fluoro-4-{2-[(2R,5S)-5-({[(2,2,2-trifluoro-ethyl)carbamoyl]oxy}methyl)morpholin-2-yl]ethyl}pyridin-3-yl)-4-pyridin-3-yl-L-phenylalaninamide] it is 260 nM.
`N#Cc1cccc([C@@H](CC(=O)Nc2cccc(F)c2CC[C@@H]2CN[C@H](COC(=O)NCC(F)(F)F)CO2)c2ccc(F)cc2)c1` [Example 160, {(3S,6R)-6-[2-(2-{[(3S)-3-(3-cyanophenyl)-3-(4-fluorophenyl)propanoyl]amino}-6-fluoro-phenyl)ethyl]morpholin-3-yl}methyl (2,2,2-trifluoroethyl)carbamate] registered an EC50 of 31 nM.
The figure for `O=C(CC(c1ccc(F)cc1)c1ccc(F)cc1)Nc1cncc(F)c1CC[C@@H]1CN[C@H](COC(=O)NC(CO)C2CC2)CO1` (stereo partly drawn) [Example 175, {(3S,6R)-6-[2-(3-{[3,3-bis(4-fluoro-phenyl)propanoyl]amino}-5-fluoropyridin-4-yl)ethyl]morpholin-3-yl}methyl (1-cyclopropyl-2-hydroxyethyl)carbamate] is 39 nM.
Compound `COCCOc1ccc([C@@H](CC(=O)Nc2cncc(F)c2CC[C@@H]2CN[C@H](COC(=O)NCC(F)(F)F)CO2)c2ccc(F)cc2)cc1` [Example 181, [(3S,6R)-6-{2-[3-fluoro-5-({(3R)-3-(4-fluorophenyl)-3-[4-(2-methoxy-ethoxy)phenyl]propanoyl}amino)pyridin-4-yl]ethyl}morpholin-3-yl]methyl (2,2,2-trifluoroethyl)carbamate] had an EC50 of 50 nM.
As for `N[C@H](C(=O)Nc1cccc(F)c1CC[C@@H]1CN[C@H](CNC(=O)OCC(F)(F)F)CO1)C(c1ccc(F)cc1)c1ccc(F)cc1` [Example 88, 4-fluoro-β-(4-fluorophenyl)-N-(3-fluoro-2-{2-[(2R,5R)-5-({[(2,2,2-trifluoro-ethoxy)carbonyl]amino}methyl)morpholin-2-yl]ethyl}phenyl)-L-phenylalaninamide], it took 450 nM to reach a half-maximal effect (EC50). Compared with the last compound, the EC50 is about 9-fold higher.
To `COC(=O)N[C@H](C(=O)Nc1cccc(F)c1CC[C@@H]1CN[C@H](COC(=O)NCC(F)(F)F)CO1)[C@@H](c1ccc(F)cc1)c1ccccc1OC(F)(F)F` [Example 111, (βS)-4-Fluoro-N-(3-fluoro-2-{2-[(2R,5S)-5-({[(2,2,2-trifluoroethyl)carbamoyl]oxy}methyl)morpholin-2-yl]ethyl}phenyl)-Nα-(methoxycarbonyl)-β-[2-(trifluoromethoxy)phenyl]-L-phenylalaninamide] belongs 25 nM.
To `COC(=O)N[C@H](C(=O)Nc1cccc(F)c1OC[C@@H]1CN[C@H](COC(N)=O)CO1)[C@@H](c1ccc(F)cc1)c1cccc(F)c1` [Example 117, (βS)—N-[2-({(2S,5S)-5-[(Carbamoyloxy)methyl]morpholin-2-yl}methoxy)-3-fluorophenyl]-4-fluoro-β-(3-fluorophenyl)-Nα-(methoxycarbonyl)-L-phenylalaninamide] belongs 18 nM.
To `O=C(CC(c1ccc(F)cc1)c1ccc(F)cc1)Nc1cccc(F)c1CC[C@@H]1CN[C@H](CNC(=O)OCC(F)(F)F)CO1` [Example 87, 2,2,2-trifluoroethyl ({(3R,6R)-6-[2-(2-{[3,3-bis(4-fluoro-phenyl)propanoyl]amino}-6-fluorophenyl)ethyl]morpholin-3-yl}methyl) carbamate] belongs 2200 nM; to `COC(=O)N[C@H](C(=O)Nc1cncc(F)c1CC[C@@H]1CN[C@H](COC(=O)NCC(F)(F)F)CO1)[C@@H](c1ccc(F)cc1)c1cccc(Cl)c1` [Example 301, (βS)-3-chloro-β-(4-fluorophenyl)-N-(5-fluoro-4-{2-[(2R, 5S)-5-({[(2,2,2-trifluoroethyl)carbamoyl]oxy}methyl)morpholin-2-yl]ethyl}pyridin-3-yl)-Nα-(methoxycarbonyl)-L-phenylalaninamide], 25 nM.
`N[C@H](C(=O)Nc1cccc(F)c1CC[C@@H]1CN[C@H](COC(=O)NCC(F)(F)F)CO1)[C@@H](c1ccc(F)cc1)C1CCOCC1` [Example 128, (βR)-4-Fluoro-N-(3-fluoro-2-{2-[(2R,5S)-5-({[(2,2,2-trifluoroethyl)carbamoyl]oxy}methyl)morpholin-2-yl]ethyl}phenyl)-β-(tetrahydro-2H-pyran-4-yl)-L-phenylalaninamide] showed an EC50 of 91 nM.
To `O=C(C[C@@H](c1ccc(F)cc1)c1ccccc1C(F)(F)F)Nc1cncc(F)c1CC[C@@H]1CN[C@H](COC(=O)NCC(F)(F)F)CO1` [Example 180, [(3S,6R)-6-{2-[3-fluoro-5-({(3S)-3-(4-fluorophenyl)-3-[2-(trifluoro-methyl)phenyl]propanoyl}amino)pyridin-4-yl]ethyl}morpholin-3-yl]methyl (2,2,2-trifluoroethyl)carbamate] belongs 310 nM.
